Results: US11884709B2, “Peptides for the treatment of resorptive bone disease” (University of New Brunswick, priority 2015, dated 2024)
Entries after “also recorded” stand apart in the source; their conditions may differ. Where no end group is shown, it is not given here.

Columns and labels:
[1] = test system: human osteoclasts; experiment: Osteoassay: bone resorption by osteoclasts on Corning osteoassay plate; assay type: cell-based; settings: for resorptive activity on corning osteoassay surface: 150 μM (C5); for bone resorption by osteoclasts / osteoclast activity (percentage resorption): Corning osteoassay plate, 1 uM-150 uM, M-CSF and RANKL, day 12
Protocol: (§1) Osteoclasts were generated in vitro by the modified method of Cody et al., 2011, using fresh human bone marrow aspirates. Briefly, bone marrow mononuclear cells (BMC) separated on a density gradient medium in SepMate tubes were resuspended in growth media (α-MEM with 10% FBS) and cultured for 3 days in T75 flask with 35 ng/mL M-CSF at 37° C. in a 5% CO2 incubator. For osteoclast differentiation experiments, 10^5 cells/well of BM monocytes-macrophage precursors seeded in a 24 well plate was treated with human M-CSF and RANKL, and media replenished with fresh cytokines every third day for two weeks.
10^5 BMCs per well in 24 well Corning osteoassay plate were treated with human M-CSF (10 ng/mL) and 10 ng/mL of human RANKL. Undifferentiated condition includes cells treated with M-CSF only. The treatment wells had both M-CSF and RANKL followed by addition of TRPV6 peptide antagonists SOR-C13 and SOR-C27 at concentrations range 1 μM-150 μM tested in triplicate wells, vehicle or PBS buffer in which the peptides are dissolved and the standard anti-resorbing agent, Zoledronate were included for the experiment. Replenishment with fresh media containing M-CSF, RANKL and SOR peptides in respective wells was carried out every third day. On day 12, cells in osteoplates were removed by incubating with 10% bleach for 10 minutes; wells were washed with distilled water three times and air-dried for 3-5 hrs. Osteoassay plate was scanned using ChemiDoc MP and area of resorption pits in each well was quantified using ImageJ 1.48v Software.
Experiments were done in triplicates for each condition and data presented as mean±SD. All statistical analyses were done using GraphPad Prism 6, one way ANOVA and Dunnett's multiple comparison test was used to determine significance between groups and P<0.05 is considered statistically significant.
The effect of C-terminal Soricidin peptides on osteoclast activity and bone resorption was examined using 24-well corning assay plates that have a 3D osteo surface that mimics in vivo bone for in vitro bone cell assays. The inorganic bone biomaterial surface in each well is capable of supporting the functional properties of osteogenic cells. Only osteoclasts, specialized cells expressing bone-resorbing enzymes such as TRAP, cathepsin K and collagenase, can resorb such an artificial osteosurface. Resorption of the osteosurface is evident from the resorption pits/trails made by the osteoclasts, and the extent of resorption was quantified. Furthermore, the percentage activity of TRAP, one of the enzymes involved in bone resorption, was determined in tandem with the resorption assay (FIG. 7c). The anti-resorptive potential of selective TRPV6 antagonist peptides, SOR-C13 and SOR-C27 at various concentrations was observed (FIGS. 7 and 8) was observed.

[2] = test system: Tartrate-Resistant Acid Phosphatase (TRAP) in osteoclasts; experiment: TRAP enzyme activity in conditioned media of osteoassay wells; assay type: cell-based, human; settings: relative to controls
Protocol: Osteoclasts were fixed and stained for tartrate-resistant acid phosphatase (TRAP) using the leukocyte acid phosphatase kit (Sigma-Aldrich) according to the manufacturer's protocol. Images were acquired in EVOS brightfield microscope. To visualize actin ring formation in osteoclasts, tetramethyl rhodamine-phalloidin (Life Technologies Inc.) staining was done for 1 hour. The cell nuclei were counterstained with 1 μg/ml Hoechst 33342 (Sigma-Aldrich) in phosphate buffered saline for 5 minute. Images were acquired in EVOS fluorescence microscope. TRAP enzyme activity was measured at 37° C. with a substrate buffer (125 mg/ml Naphthol AS-BI phosphoric acid in diazotized fast garnet base chemical solution, Sigma-Aldrich) at 560 nm.
(§2) 10^5 BMCs per well in 24 well Corning osteoassay plate were treated with human M-CSF (10 ng/mL) and 10 ng/mL of human RANKL. […] Osteoassay plate was scanned using ChemiDoc MP and area of resorption pits in each well was quantified using ImageJ 1.48v Software.
(§3) The effect of C-terminal Soricidin peptides on osteoclast activity and bone resorption was examined using 24-well corning assay plates that have a 3D osteo surface that mimics in vivo bone for in vitro bone cell assays. […] Resorption of the osteosurface is evident from the resorption pits/trails made by the osteoclasts, and the extent of resorption was quantified. […]

[3] = test system: osteoclast differentiation; experiment: Osteoclast differentiation from bone marrow mononuclear cells (M-CSF and RANKL); assay type: cell-based, human; settings: 150 μM (C5)
Protocol: as §1, §2
as §3, with “quantified. Furthermore, the percentage activity of TRAP, one of the enzymes involved in bone resorption, was determined in tandem with the resorption assay (FIG. 7c).” for “quantified.”

[4] = test system: KMM-1 cells; experiment: 48 hr peptide treatment, myeloma cell growth (KMM-1); assay type: cell-based, human; settings: 1 uM-500 uM
Protocol: C1=1 uM, C2=10 uM, C3=50 uM, C4=100 uM, C5=150 uM, C6=250 uM, C7=300 uM, C8=400 uM, C9=500 uM.
(§4) The expression of TRPV6 protein was also observed in human myeloma cells by immunohistochemistry on myeloma bone sections (FIG. 1C) and in myeloma cell lines by western blotting (FIG. 9). Moreover, the growth inhibitory potential of SOR-C13 and SOR-C27 was determined using human myeloma cell lines U266 and KMM-1 (FIGS. 10 and 11). There exists a reciprocal relationship between myeloma cells and osteoclasts in the bone marrow milieu where myeloma cells secrete many factors that promote osteoclast activity, and in turn osteoclasts induce myeloma cell growth and survival.

[5] = test system: U266 cells; experiment: 48 hr peptide treatment, myeloma cell growth (U266); assay type: cell-based, human; settings: 1 uM-500 uM
Protocol: C1=1 uM, C2=10 uM, C3=50 uM, C4=100 uM, C5=150 uM, C6=250 uM, C7=400 uM, C8=500 uM.
as §4

[6] = test system: two ovarian cancer cell lines; settings: cited from earlier work
[7] = in vivo; cited from earlier work

| Substance | resorptive activity on corning osteoassay surface [1] | bone resorption by osteoclasts / osteoclast activity (percentage resorption) [1] | TRAP enzyme activity [2] | osteoclast differentiation in vitro [3] | cell growth [4] | cell growth [5] | calcium uptake [6] | paralysis [7] |
| --- | --- | --- | --- | --- | --- | --- | --- | --- |
| KEFLHPSKVDLPR [SOR-C13, KEFLHPSKVDLPR] | significantly reduced their resorptive activity | inhibition of osteoclast activity; also recorded: dose-dependent decrease in bone resorption | decrease in TRAP enzyme activity relative to controls | inhibited osteoclast differentiation | dose-dependent inhibition of cell growth | dose-dependent inhibition of cell growth | – | – |
| EGKLSSNDTEGGLCKEFLHPSKVDLPR [SOR-C27, peptide corresponding to the C-terminal end of soricidin; TRPV6 peptide antagonist] | significantly reduced their resorptive activity | dose-dependent Inhibition of osteoclast activity; also recorded: dose-dependent decrease in bone resorption | decrease in TRAP enzyme activity relative to controls | inhibited osteoclast differentiation | dose-dependent inhibition of cell growth | dose-dependent inhibition of cell growth | – | – |
| Soricidin: fifty-four amino acid paralytic peptide isolated from the submaxilary saliva gland of the Northern Short-tailed Shrew (Blarina brevicauda) (DCSQDCAACSILARPAELNTETCILECEGKLSSNDTEGGLCKEFLHPSKVDLPR; UniProt P0C2P6 1-54, looked up) | – | – | – | – | – | – | inhibited calcium uptake | caused paralysis |
